This note sets out measurements from the NIST ThermoML archive (doi:10.1016/j.jct.2011.04.018).

Structures are written as SMILES. ± gives the expanded uncertainty stated by the source.

The nature of one data set: activity coefficient (dimensionless); of the first substance listed, at infinite dilution; xn = mol fraction of the nth substance listed. The settings on record: 308.15 K; 101 kPa; Liquid; Chromatography; x1 = 0.
As to `C1CCCC1` [cyclopentane] + O=S(=O)([N-]S(=O)(=O)C(F)(F)F)C(F)(F)F.OCCC[n+]1ccccc1, the activity coefficient was 15.8 ± 1.1.
`CCCCCCCCCC` [decane] + O=S(=O)([N-]S(=O)(=O)C(F)(F)F)C(F)(F)F.OCCC[n+]1ccccc1: the activity coefficient stood at 327 ± 22.
On the same count and under the same terms, the value for `CCOCC` [diethyl ether] + O=S(=O)([N-]S(=O)(=O)C(F)(F)F)C(F)(F)F.OCCC[n+]1ccccc1 was 2.71 ± 0.18; that for `CCCOCCC` [dipropyl ether] + O=S(=O)([N-]S(=O)(=O)C(F)(F)F)C(F)(F)F.OCCC[n+]1ccccc1 was 9.62 ± 0.66.
On to `CCCCCCC` [heptane] + O=S(=O)([N-]S(=O)(=O)C(F)(F)F)C(F)(F)F.OCCC[n+]1ccccc1, for which the activity coefficient amounted to 82 ± 5.6.
For the compound `C=CCCCC` [hex-1-ene] + O=S(=O)([N-]S(=O)(=O)C(F)(F)F)C(F)(F)F.OCCC[n+]1ccccc1, the activity coefficient came to 22.7 ± 1.6.
Take `CCCCCC` [hexane] + O=S(=O)([N-]S(=O)(=O)C(F)(F)F)C(F)(F)F.OCCC[n+]1ccccc1: the activity coefficient is 51.3 ± 3.5.
On to `CC1CCCCC1` [methylcyclohexane] + O=S(=O)([N-]S(=O)(=O)C(F)(F)F)C(F)(F)F.OCCC[n+]1ccccc1, for which the activity coefficient was 38.7 ± 2.6.
Consider `CCCCCCCCC` [nonane] + O=S(=O)([N-]S(=O)(=O)C(F)(F)F)C(F)(F)F.OCCC[n+]1ccccc1, for which the activity coefficient was determined as 206 ± 14.
As to `C=CCCCCCC` [oct-1-ene] + O=S(=O)([N-]S(=O)(=O)C(F)(F)F)C(F)(F)F.OCCC[n+]1ccccc1, the activity coefficient was 58 ± 4.
With `CCCCCCCC` [octane] + O=S(=O)([N-]S(=O)(=O)C(F)(F)F)C(F)(F)F.OCCC[n+]1ccccc1, the activity coefficient amounted to 130 ± 9.
Regarding `CCCCC` [pentane] + O=S(=O)([N-]S(=O)(=O)C(F)(F)F)C(F)(F)F.OCCC[n+]1ccccc1, the activity coefficient worked out at 32.9 ± 2.3.

The same data set, now with this note: 318.15 K; 101 kPa; Liquid; Chromatography; x1 = 0.
On to `C1CCCC1` [cyclopentane] + O=S(=O)([N-]S(=O)(=O)C(F)(F)F)C(F)(F)F.OCCC[n+]1ccccc1, for which the activity coefficient was 14.6 ± 1.
In the case of `CCCCCCCCCC` [decane] + O=S(=O)([N-]S(=O)(=O)C(F)(F)F)C(F)(F)F.OCCC[n+]1ccccc1, the activity coefficient was 284 ± 20.
`CCOCC` [diethyl ether] + O=S(=O)([N-]S(=O)(=O)C(F)(F)F)C(F)(F)F.OCCC[n+]1ccccc1: the activity coefficient turned out to be 2.77 ± 0.19.
Same read-out and setting: the value for `CCCOCCC` [dipropyl ether] + O=S(=O)([N-]S(=O)(=O)C(F)(F)F)C(F)(F)F.OCCC[n+]1ccccc1 was 9.45 ± 0.64; that for `CCO` [ethanol] + O=S(=O)([N-]S(=O)(=O)C(F)(F)F)C(F)(F)F.OCCC[n+]1ccccc1 was 1.16 ± 0.07.
Turning to `CCc1ccccc1` [ethylbenzene] + O=S(=O)([N-]S(=O)(=O)C(F)(F)F)C(F)(F)F.OCCC[n+]1ccccc1, the activity coefficient is 3.96 ± 0.27.
On to `CCCCCCC` [heptane] + O=S(=O)([N-]S(=O)(=O)C(F)(F)F)C(F)(F)F.OCCC[n+]1ccccc1, for which the activity coefficient is 73.8 ± 5.1.
On to `C=CCCCC` [hex-1-ene] + O=S(=O)([N-]S(=O)(=O)C(F)(F)F)C(F)(F)F.OCCC[n+]1ccccc1, for which the activity coefficient was determined as 21.2 ± 1.4.
With `CCCCCC` [hexane] + O=S(=O)([N-]S(=O)(=O)C(F)(F)F)C(F)(F)F.OCCC[n+]1ccccc1, the activity coefficient is 46.7 ± 3.2.
For `CO` [methanol] + O=S(=O)([N-]S(=O)(=O)C(F)(F)F)C(F)(F)F.OCCC[n+]1ccccc1, the activity coefficient is 0.87 ± 0.056.
Regarding `CC1CCCCC1` [methylcyclohexane] + O=S(=O)([N-]S(=O)(=O)C(F)(F)F)C(F)(F)F.OCCC[n+]1ccccc1, the activity coefficient turned out to be 35.2 ± 2.4.
In the case of `CCCCCCCCC` [nonane] + O=S(=O)([N-]S(=O)(=O)C(F)(F)F)C(F)(F)F.OCCC[n+]1ccccc1, the activity coefficient was determined as 181 ± 12.
For the compound `C=CCCCCCC` [oct-1-ene] + O=S(=O)([N-]S(=O)(=O)C(F)(F)F)C(F)(F)F.OCCC[n+]1ccccc1, the activity coefficient is 53 ± 3.6.
As for `CCCCCCCC` [octane] + O=S(=O)([N-]S(=O)(=O)C(F)(F)F)C(F)(F)F.OCCC[n+]1ccccc1, the activity coefficient is 116 ± 8.
Regarding `CCCC(C)=O` [pentan-2-one] + O=S(=O)([N-]S(=O)(=O)C(F)(F)F)C(F)(F)F.OCCC[n+]1ccccc1, the activity coefficient was 0.885 ± 0.056.
As for `CCC(=O)CC` [pentan-3-one] + O=S(=O)([N-]S(=O)(=O)C(F)(F)F)C(F)(F)F.OCCC[n+]1ccccc1, the activity coefficient was 0.936 ± 0.059.
With `CCCCC` [pentane] + O=S(=O)([N-]S(=O)(=O)C(F)(F)F)C(F)(F)F.OCCC[n+]1ccccc1, the activity coefficient worked out at 30.2 ± 2.1.
As for `CCCO` [propan-1-ol] + O=S(=O)([N-]S(=O)(=O)C(F)(F)F)C(F)(F)F.OCCC[n+]1ccccc1, the activity coefficient amounted to 1.6 ± 0.11.
As for `C1CCOC1` [tetrahydrofuran] + O=S(=O)([N-]S(=O)(=O)C(F)(F)F)C(F)(F)F.OCCC[n+]1ccccc1, the activity coefficient was 0.695 ± 0.047.
With `c1ccsc1` [thiophene] + O=S(=O)([N-]S(=O)(=O)C(F)(F)F)C(F)(F)F.OCCC[n+]1ccccc1, the activity coefficient amounted to 1.27 ± 0.08.
The same measure, in the same setting: the value for `Cc1ccccc1` [toluene] + O=S(=O)([N-]S(=O)(=O)C(F)(F)F)C(F)(F)F.OCCC[n+]1ccccc1 was 2.36 ± 0.16; that for `O` [water] + O=S(=O)([N-]S(=O)(=O)C(F)(F)F)C(F)(F)F.OCCC[n+]1ccccc1 was 1.53 ± 0.1.

The data set is the same for the next values; noted with them: 328.15 K; 101 kPa; Liquid; Chromatography; x1 = 0.
Take `C1CCCC1` [cyclopentane] + O=S(=O)([N-]S(=O)(=O)C(F)(F)F)C(F)(F)F.OCCC[n+]1ccccc1: the activity coefficient was found to be 13.5 ± 0.9.
In the case of `CCCCCCCCCC` [decane] + O=S(=O)([N-]S(=O)(=O)C(F)(F)F)C(F)(F)F.OCCC[n+]1ccccc1, the activity coefficient is 245 ± 17.
The same measure, in the same setting: the result for `CCOCC` [diethyl ether] + O=S(=O)([N-]S(=O)(=O)C(F)(F)F)C(F)(F)F.OCCC[n+]1ccccc1 reads 2.82 ± 0.19.
On the same count and under the same terms, the value for `CCCOCCC` [dipropyl ether] + O=S(=O)([N-]S(=O)(=O)C(F)(F)F)C(F)(F)F.OCCC[n+]1ccccc1 was 9.28 ± 0.63.
On to `CCO` [ethanol] + O=S(=O)([N-]S(=O)(=O)C(F)(F)F)C(F)(F)F.OCCC[n+]1ccccc1, for which the activity coefficient came to 1.11 ± 0.07.
With `CCc1ccccc1` [ethylbenzene] + O=S(=O)([N-]S(=O)(=O)C(F)(F)F)C(F)(F)F.OCCC[n+]1ccccc1, the activity coefficient is 3.93 ± 0.27.
Regarding `CCCCCCC` [heptane] + O=S(=O)([N-]S(=O)(=O)C(F)(F)F)C(F)(F)F.OCCC[n+]1ccccc1, the activity coefficient came out at 66.2 ± 4.5.
In the case of `C=CCCCC` [hex-1-ene] + O=S(=O)([N-]S(=O)(=O)C(F)(F)F)C(F)(F)F.OCCC[n+]1ccccc1, the activity coefficient was 19.7 ± 1.3.
Still for that read-out and setting: the result for `CCCCCC` [hexane] + O=S(=O)([N-]S(=O)(=O)C(F)(F)F)C(F)(F)F.OCCC[n+]1ccccc1 reads 42.3 ± 2.9.
`CO` [methanol] + O=S(=O)([N-]S(=O)(=O)C(F)(F)F)C(F)(F)F.OCCC[n+]1ccccc1: the activity coefficient came to 0.836 ± 0.054.
Turning to `CC1CCCCC1` [methylcyclohexane] + O=S(=O)([N-]S(=O)(=O)C(F)(F)F)C(F)(F)F.OCCC[n+]1ccccc1, the activity coefficient was 31.9 ± 2.2.
Consider `CCCCCCCCC` [nonane] + O=S(=O)([N-]S(=O)(=O)C(F)(F)F)C(F)(F)F.OCCC[n+]1ccccc1, for which the activity coefficient was 157 ± 11.
On the same count and under the same terms, the result for `C=CCCCCCC` [oct-1-ene] + O=S(=O)([N-]S(=O)(=O)C(F)(F)F)C(F)(F)F.OCCC[n+]1ccccc1 reads 48.5 ± 3.3.
With `CCCCCCCC` [octane] + O=S(=O)([N-]S(=O)(=O)C(F)(F)F)C(F)(F)F.OCCC[n+]1ccccc1, the activity coefficient came out at 102 ± 7.
Take `CCCC(C)=O` [pentan-2-one] + O=S(=O)([N-]S(=O)(=O)C(F)(F)F)C(F)(F)F.OCCC[n+]1ccccc1: the activity coefficient amounted to 0.91 ± 0.058.
In the case of `CCC(=O)CC` [pentan-3-one] + O=S(=O)([N-]S(=O)(=O)C(F)(F)F)C(F)(F)F.OCCC[n+]1ccccc1, the activity coefficient is 0.963 ± 0.061.
For the compound `CCCCC` [pentane] + O=S(=O)([N-]S(=O)(=O)C(F)(F)F)C(F)(F)F.OCCC[n+]1ccccc1, the activity coefficient came out at 27.9 ± 1.9.
Take `CCCO` [propan-1-ol] + O=S(=O)([N-]S(=O)(=O)C(F)(F)F)C(F)(F)F.OCCC[n+]1ccccc1: the activity coefficient was 1.52 ± 0.1.
On to `C1CCOC1` [tetrahydrofuran] + O=S(=O)([N-]S(=O)(=O)C(F)(F)F)C(F)(F)F.OCCC[n+]1ccccc1, for which the activity coefficient turned out to be 0.727 ± 0.048.
For `c1ccsc1` [thiophene] + O=S(=O)([N-]S(=O)(=O)C(F)(F)F)C(F)(F)F.OCCC[n+]1ccccc1, the activity coefficient came to 1.28 ± 0.08.
Take `Cc1ccccc1` [toluene] + O=S(=O)([N-]S(=O)(=O)C(F)(F)F)C(F)(F)F.OCCC[n+]1ccccc1: the activity coefficient was 2.37 ± 0.16.
For `O` [water] + O=S(=O)([N-]S(=O)(=O)C(F)(F)F)C(F)(F)F.OCCC[n+]1ccccc1, the activity coefficient turned out to be 1.42 ± 0.09.

Still in this data set, the particulars now being: 338.15 K; 101 kPa; Liquid; Chromatography; x1 = 0.
As for `C1CCCC1` [cyclopentane] + O=S(=O)([N-]S(=O)(=O)C(F)(F)F)C(F)(F)F.OCCC[n+]1ccccc1, the activity coefficient turned out to be 12.5 ± 0.9.
On to `CCCCCCCCCC` [decane] + O=S(=O)([N-]S(=O)(=O)C(F)(F)F)C(F)(F)F.OCCC[n+]1ccccc1, for which the activity coefficient is 214 ± 15.
Turning to `CCOCC` [diethyl ether] + O=S(=O)([N-]S(=O)(=O)C(F)(F)F)C(F)(F)F.OCCC[n+]1ccccc1, the activity coefficient stood at 2.87 ± 0.2.
Same read-out and setting: the value for `CCCOCCC` [dipropyl ether] + O=S(=O)([N-]S(=O)(=O)C(F)(F)F)C(F)(F)F.OCCC[n+]1ccccc1 was 9.12 ± 0.62; that for `CCO` [ethanol] + O=S(=O)([N-]S(=O)(=O)C(F)(F)F)C(F)(F)F.OCCC[n+]1ccccc1 was 1.06 ± 0.07; that for `CCc1ccccc1` [ethylbenzene] + O=S(=O)([N-]S(=O)(=O)C(F)(F)F)C(F)(F)F.OCCC[n+]1ccccc1 was 3.9 ± 0.27.
In the case of `CCCCCCC` [heptane] + O=S(=O)([N-]S(=O)(=O)C(F)(F)F)C(F)(F)F.OCCC[n+]1ccccc1, the activity coefficient turned out to be 59.3 ± 4.1.
`C=CCCCC` [hex-1-ene] + O=S(=O)([N-]S(=O)(=O)C(F)(F)F)C(F)(F)F.OCCC[n+]1ccccc1: the activity coefficient was 18.4 ± 1.3.
With `CCCCCC` [hexane] + O=S(=O)([N-]S(=O)(=O)C(F)(F)F)C(F)(F)F.OCCC[n+]1ccccc1, the activity coefficient was found to be 38.5 ± 2.6.
Take `CO` [methanol] + O=S(=O)([N-]S(=O)(=O)C(F)(F)F)C(F)(F)F.OCCC[n+]1ccccc1: the activity coefficient amounted to 0.804 ± 0.052.
Still for that read-out and setting: the value for `CC1CCCCC1` [methylcyclohexane] + O=S(=O)([N-]S(=O)(=O)C(F)(F)F)C(F)(F)F.OCCC[n+]1ccccc1 was 29 ± 2; that for `CCCCCCCCC` [nonane] + O=S(=O)([N-]S(=O)(=O)C(F)(F)F)C(F)(F)F.OCCC[n+]1ccccc1 was 139 ± 10.
Regarding `C=CCCCCCC` [oct-1-ene] + O=S(=O)([N-]S(=O)(=O)C(F)(F)F)C(F)(F)F.OCCC[n+]1ccccc1, the activity coefficient was 44.4 ± 3.
For the compound `CCCCCCCC` [octane] + O=S(=O)([N-]S(=O)(=O)C(F)(F)F)C(F)(F)F.OCCC[n+]1ccccc1, the activity coefficient was 91.1 ± 6.2.
The same measure, in the same setting: the result for `CCCC(C)=O` [pentan-2-one] + O=S(=O)([N-]S(=O)(=O)C(F)(F)F)C(F)(F)F.OCCC[n+]1ccccc1 reads 0.937 ± 0.059.
The same measure, in the same setting: the result for `CCC(=O)CC` [pentan-3-one] + O=S(=O)([N-]S(=O)(=O)C(F)(F)F)C(F)(F)F.OCCC[n+]1ccccc1 reads 0.991 ± 0.062; that for `CCCCC` [pentane] + O=S(=O)([N-]S(=O)(=O)C(F)(F)F)C(F)(F)F.OCCC[n+]1ccccc1, 25.8 ± 1.8.
Same read-out and setting: the result for `CCCO` [propan-1-ol] + O=S(=O)([N-]S(=O)(=O)C(F)(F)F)C(F)(F)F.OCCC[n+]1ccccc1 reads 1.46 ± 0.1; that for `C1CCOC1` [tetrahydrofuran] + O=S(=O)([N-]S(=O)(=O)C(F)(F)F)C(F)(F)F.OCCC[n+]1ccccc1, 0.757 ± 0.05.
